# Results published in publication PMC9146474, “3-(((1S,3S)-3-((R)-Hydroxy(4-(trifluoromethyl)phenyl)methyl)-4-oxocyclohexyl)methyl)pentane-2,4-dione: Design and Synthesis of New Stereopure Multi-Target Antidiabetic Agent” (Molecules, 2022).
# What was measured:
# α-amylase = test: In-vitro α-amylase inhibition; type: biochemical
# Procedure: The potential of stereopure S,S,R-5 against the α-amylase was also determined as per the protocols. The enzyme solution was prepared in the phosphate buffer and was mixed with different concentrations of the compound to allow the reaction. All the solutions were incubated as per the method. Dinitrosalicylic acid was added to the compound and standard solutions. The respective solutions were heated in water baths for a few minutes. The absorbances of the solutions were recorded at 656 nm. The observations were repeated three times. The percent inhibitions at each concentration and the IC50 values were calculated according to the standard formula [50].
# [1] = biological target: T1, protein tyrosine phosphatase 1B (PTP-1B) (Homo sapiens, UniProt P18031); test: Protein tyrosine phosphatase 1B inhibition; type: biochemical; conditions: for inhibition at 500 µM: 500 μM/mL; for inhibition at 31.25 µM: 31.25 μM/mL; for inhibition at 31.25 µM / inhibition at 62.5 µM / inhibition at 125 µM / inhibition at 250 µM: read-out: PTP-1B Percent Inhibition (converted); for inhibition at 62.5 µM: 62.5 μM/mL; for inhibition at 125 µM: 125 μM/mL; for inhibition at 250 µM: 250 μM/mL
# T1 sequence (P18031 1-435): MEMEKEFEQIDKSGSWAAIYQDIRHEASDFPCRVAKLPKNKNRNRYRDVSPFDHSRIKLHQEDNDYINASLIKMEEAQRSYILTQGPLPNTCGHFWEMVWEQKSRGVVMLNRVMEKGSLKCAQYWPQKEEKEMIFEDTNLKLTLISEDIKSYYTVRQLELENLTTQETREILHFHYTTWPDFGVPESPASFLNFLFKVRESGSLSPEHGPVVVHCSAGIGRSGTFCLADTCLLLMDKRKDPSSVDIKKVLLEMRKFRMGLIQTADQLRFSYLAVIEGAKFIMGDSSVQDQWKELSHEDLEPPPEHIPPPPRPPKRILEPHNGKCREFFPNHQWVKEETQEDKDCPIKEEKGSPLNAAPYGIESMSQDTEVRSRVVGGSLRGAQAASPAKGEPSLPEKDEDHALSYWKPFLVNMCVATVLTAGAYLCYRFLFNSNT
# Procedure: A buffer solution with pH 7 of 3,3-dimethyl glutarate was used. […] All the solutions were incubated at 27 °C for 40 min. The absorbances of the solutions were recorded at 405 nm. The observations were repeated three times. The percent inhibitions at each concentration and the IC50 values were calculated according to the standard formula.
# [2] = DPPH free radical scavenging assay (antioxidant assay)
# Procedure: To supplement the role of free radicals in diabetes, the free radical scavenging potential of compound S,S,R-5 was also determined as per the standard method. Different concentrations of the stereopure compound were prepared and DPPH solution in methanol (0.004%) were added to it. The solutions were incubated for half an hour. The absorbances of the solutions were recorded at 517 nm. The observations were repeated three times. The percent inhibitions at each concentration and the IC50 values were calculated according to the standard formula [52].
# albino mice = conditions: mouse, in vivo
# Procedure: We also tested the toxicity profile of our compound S,S,R-5 by using the simple acute toxicity test in experimental albino mice. The mice were acquired and used in the animal house of our university as per the standard guidelines of the departmental ethical committee. As per the standard procedure, we gave various concentrations of compound S,S,R-5 to albino mice and observed them for the next 72 h.
# α-glucosidase = α-glucosidase (Saccharomyces cerevisiae, UniProt P53341); type: biochemical
# α-glucosidase, sequence (P53341 whole entry): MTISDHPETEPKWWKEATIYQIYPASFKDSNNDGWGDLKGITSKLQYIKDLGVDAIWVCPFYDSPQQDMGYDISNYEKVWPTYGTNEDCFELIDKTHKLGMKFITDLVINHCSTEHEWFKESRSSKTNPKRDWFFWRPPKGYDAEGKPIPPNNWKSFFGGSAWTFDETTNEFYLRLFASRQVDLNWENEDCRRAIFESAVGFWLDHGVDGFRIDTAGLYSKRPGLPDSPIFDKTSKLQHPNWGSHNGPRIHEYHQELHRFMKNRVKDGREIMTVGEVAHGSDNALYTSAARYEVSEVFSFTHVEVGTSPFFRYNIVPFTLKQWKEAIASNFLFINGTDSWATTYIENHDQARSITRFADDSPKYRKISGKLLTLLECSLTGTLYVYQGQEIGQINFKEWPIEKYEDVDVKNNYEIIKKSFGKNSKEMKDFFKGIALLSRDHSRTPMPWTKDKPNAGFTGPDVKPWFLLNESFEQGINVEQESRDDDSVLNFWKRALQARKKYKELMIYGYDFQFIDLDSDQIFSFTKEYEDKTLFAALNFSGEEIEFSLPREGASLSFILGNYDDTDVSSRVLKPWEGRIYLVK
# Procedure: The α-glucosidase inhibitory activity on the S,S,R-5 was performed as per the reported protocols. […] The α-glucosidase solution (0.5 units/mL) was prepared in phosphate buffer (0.1 M, 6.90 pH). p-Nitrophenyl-α-D-glucopyranoside (5 mM) was added as substrate solution to the buffer solution. Different concentrations of the compound, i.e., 500, 250, 125, 62.5, and 31.25 μM were prepared. The enzyme solutions were mixed with the compound’s solution and were incubated for 15 min at 37 °C. To these solutions were added the pre-prepared substrate solution and the repetition of incubation. The final reaction was completed with the addition of sodium carbonate solution (0.2 M, 80 μL). The combined solution excluding the α-glucosidase was used as a blank solution. The absorbances of the solutions were recorded at 405 nm. The observations were repeated three times. The percent inhibitions at each concentration and the IC50 values were calculated according to the standard formula [48].
# [3] = 500 μM/mL, listed as minor diastereomer (S,S,R-5)
compound,measurement,setting,value
"CC(=O)C(CC1CCC(=O)C(C(O)c2ccc(C(F)(F)F)cc2)C1)C(C)=O [minor (S,S,R-5)]",α-Amylase % Inhibition,α-amylase; [3],72.65%
same,inhibition at 500 µM,[1],65.4%
same,DPPH % Inhibition,[2]; [3],70.21%
"CC(=O)C(C[C@H]1CCC(=O)[C@H]([C@@H](O)c2ccc(C(F)(F)F)cc2)C1)C(C)=O [S,S,R-5, 3-(((1S,3S)-3-((R)-hydroxy(4-(trifluoromethyl)phenyl)methyl)-4-oxocyclohexyl)methyl)pentane-2,4-dione]",IC50,α-amylase,4.58 ± 0.14 µM
same,α-Amylase Percent Inhibition,α-amylase; 31.25 μM/mL,58.47 ± 0.56%
same,α-Amylase Percent Inhibition,α-amylase; 62.5 μM/mL,62.28 ± 0.57%
same,α-Amylase Percent Inhibition,α-amylase; 125 μM/mL,68.90 ± 0.96%
same,α-Amylase Percent Inhibition,α-amylase; 250 μM/mL,73.08 ± 0.47%
same,IC50,[1],0.91 ± 0.1 µM
same,inhibition at 31.25 µM,[1],73.7%
same,inhibition at 62.5 µM,[1],76.2%
same,inhibition at 125 µM,[1],79.6%
same,inhibition at 250 µM,[1],84.4%
same,IC50,[2],2.36 ± 0.1 µM
same,DPPH Percent Inhibition,[2]; 31.25 μM/mL,71.90 ± 0.45%
same,DPPH Percent Inhibition,[2]; 62.5 μM/mL,76.00 ± 0.30%
same,DPPH Percent Inhibition,[2]; 125 μM/mL,81.90 ± 0.60%
same,DPPH Percent Inhibition,[2]; 250 μM/mL,87.45 ± 0.90%
same,Acute toxicity: behavioral changes or lethality,albino mice,no unwanted behavioral changes or lethality
C[C@H]1O[C@H](O[C@H]2[C@H](O)[C@@H](O)[C@@H](O[C@H]3[C@H](O)[C@@H](O)C(O)O[C@@H]3CO)O[C@@H]2CO)[C@H](O)[C@@H](O)[C@@H]1N[C@H]1C=C(CO)[C@@H](O)[C@H](O)[C@H]1O (some centres unmarked) [Acarbose],α-Glucosidase % Inhibition,α-glucosidase,95.20 ± 0.15 91.17 ± 0.53 86.98 ± 0.85 81.20 ± 0.65 77.80 ± 0.37%
same,α-Glucosidase Percent Inhibition,α-glucosidase,95.20 ± 0.15 91.17 ± 0.53 86.98 ± 0.85 81.20 ± 0.65 77.80 ± 0.37%
"C[C@H]1[C@H](C)CC[C@]2(C(=O)O)CC[C@]3(C)C(=CC[C@@H]4[C@@]5(C)CC[C@H](O)C(C)(C)[C@@H]5CC[C@]43C)[C@H]12 [Ursolic acid, reference compound]",inhibition at 31.25 µM,[1],76%
same,inhibition at 62.5 µM,[1],78.3%
same,inhibition at 125 µM,[1],82.3%
same,inhibition at 250 µM,[1],87.2%
same,inhibition at 500 µM,[1],90.83 ± 0.47%
